Patent US10513519B2, “Solid forms of (1S,4S)-4-(2-(((3S,4R)-3-fluorotetrahydro-2H-pyran-4-yl)amino)-8-((2,4,6-trichlorophenyl)amino)-9H-purin-9-yl)-1-methylcyclohexane-1-carboxamide and methods of their use” (Signal Pharmaceuticals, LLC, priority 2016, dated 2019)
Read-outs that look alike come from different tables or passages of the source.

Experiments:
[1] = tested on: HCC cell lines; test: HCC cell line apoptosis (Caspase 3/7-Glo); format: cell-based; conditions: 72 h
Procedure: Prior to testing, cells were grown and expanded in culture flasks to provide sufficient amounts of starting material. Cells were then diluted to the appropriate densities and added directly to the compound-spotted 384-well plates. Cells were allowed to grow for 72 h at 37° C./5% CO2. At the time when compound was added (to), initial cell number was assessed via a viability assay (Cell Titer-Glo) by quantifying the level of luminescence generated by ATP present in viable cells. After 72 h, cell viability of compound-treated cells was assessed via Cell Titer-Glo and luminescence measurement. The apoptotic response to Compound 1 was assessed by quantifying the activities of caspase 3 and caspase 7 (Caspase 3/7-Glo) in treated cells and DMSO control cells.
Proliferation and apoptosis were measured using CellTiter-Glo and Caspase 3/7-Glo. CalX2 values are the lowest concentration at which Compound 1 induces a 2-fold increase of cleaved caspase 3/7 compared to DMSO control. Proliferation and apoptosis data is the average of 3 experiments.

[2] = tested on: Hep3B (HCC) cells; test: Long term colony assay, Hep3B; format: cell-based; conditions: up to 8 weeks
Procedure: Compound 1 was assessed for its ability to inhibit the colony formation of cancer cells via a long-term colony forming assay. Cells and compounds were added to 96-well plates and were monitored for up to 8 weeks for the formation of colonies. Compound and media were replenished every 1 week throughout the course of the assay. Colony formation was detected via imaging at 4× on the IncuCyte ZOOM System. […] (FIGS. 210A-210D).

[3] = tested on: pRSK1 S380 in LOX-IMVI cells; test: pRSK1 S380 Mesoscale assay in LOX-IMVI; format: cell-based
Procedure: Cancer cells were seeded at a density of 25,000 cells per well in 96-well tissue culture plates and incubated at 37° C. in a CO2 incubator overnight. After treatment with Compound 1 at 37° C. for 2 h, the cells were lysed with Mesoscale lysis buffer and pRSK S380 levels in each lysate were measured via Mesoscale ELISA technology.

[4] = tested on: BRAF mutant and beta-catenin mutant or active cancer cell lines; test: Anti-proliferative and apoptotic activity in BRAF mutant and beta-catenin mutant or active cancer cell lines; format: cell-based; conditions: for IC50: read-out: Proliferation IC50
Procedure: Anti-proliferative and apoptotic activity in BRAF mutant and beta-catenin mutant or active cancer cell lines. The mutation status of BRAF, CTNNB1, KRAS, and EGFR in five cell lines evaluated was based on public data (COSMIC and CCLE) and confirmed internally. β-catenin status was evaluated using TOP Flash reporter system by transient transfection. A cell line was defined as β-catenin active if a ratio of Top Flash reporter over Fop Flash reporter is greater than 2. N/A: Not available. Transfection efficiency in Colo 205 (BRAF V600E) was too low to access its β-catenin activity using this approach. Antiproliferative and apoptotic activity of Compound 1 in the five cell lines were measured as described above.

[5] = tested on: DUSP4, DUSP6, SPRY2, c-Myc, cyclin D1, Axin2, CTGF, AREG mRNA in Colo 205 (BRAF V600E); test: Quantitative PCR (Cell-To-CT kit) in Colo 205; format: cell-based
Procedure: The ability of Compound 1 to inhibit MAPK signaling was assessed by determining the DUSP4 and DUSP6 protein expression. Colon cancer cell line Colo 205 (BRAF V600E) cultures were treated with DMSO or increasing concentrations of Compound 1 for 2, 8 or 24 h. Proteins were extracted from treated cells and analyzed by Western blot using antibodies against DUSP4, DUSP6, cyclin D1, c-Myc, YAP or β-actin. RNAs were extracted using Cell-To-CT kit and quantitative PCR was performed with probes specific for DUSP4, DUSP6, SPRY2, c-Myc and cyclin D1. Specific probes for β-actin were used for normalization.
Cellular activity against beta-catenin and YAP target genes by Compound 1 was evaluated. Colon cancer cell line Colo 205 (BRAF V600E) cultures were treated with DMSO or increasing concentrations of Compound 1 for 2, 8 or 24 h. RNAs were extracted using Cell-To-CT kit and quantitative PCR was performed with probes specific for Axin2, CTGF, and AREG. Specific probes for β-actin were used for normalization.
Compound 1 modulation of MAPK, WNT/β-catenin, and Hippo/YAP pathway genes was evaluated by real-time (RT)-qPCR. […], SW48, and Colo-205 cells were plated in 96-well plates at a density of 20,000 cells per well and were allowed to attach overnight. Compound 1 was added to cells at half log concentrations from 1 nM to 10 μM for durations of 2, 8, and 24 hours. Cells were harvested using the TaqMan Gene Expression Cells-to-CT Kit according to the product manual. Next, RT-PCR was performed and the resulting cDNA was used in qPCR reactions on the ViiA7 Real-Time PCR System (Thermo Fisher Scientific). TaqMan probes were used to monitor changes in DUSP4, DUSP6, SPRY2, MYC, CCND1, AXIN2, CTGF, Cyr61, AREG, and ACTB genes. All genes were normalized to ACTB expression and reported as percentage of DMSO-only control.

[6] = tested on: cell lines having β-catenin mutations; test: Sensitivity of cell lines by mutation status (β-catenin, BRAF, RB, PI3K/PTEN); format: cell-based
Procedure: Evaluation of sensitivity in cell lines having beta-catenin mutations. The effect of Compound 1 on cell lines having β-catenin mutations was evaluated. (FIG. 205 and FIGS. 206A-206B).

[7] = tested on: SW48 xenograft; test: β-catenin mutant SW48 colorectal xenograft model; format: in vivo, SCID mice
Text: Female SCID mice were inoculated with 2×10^6 SW48 tumor cells into the right flank. Mice were randomized into treatment groups (n=10/group) at the time of treatment initiation. Test article treatment started on Day 10 when the tumors were approximately 110 and 105 mm^3. (FIGS. 202A-202B) Black dotted line is the tumor volume at the initiation of dosing. Graph on the left is a dose-response study. Graph on the right is a time to progression study where animals were maintained on drug during the course of the study. Dotted line is the tumor volume on Day 28 when the vehicle control group was terminated.

[8] = AGS, Gastric, CTNNB1 (G43E), KRAS (G12D), β-catenin active

**Q.** Which “apoptosis in HCC lines” value [1] does the source give for C[C@]1(C(N)=O)CC[C@@H](n2c(Nc3c(Cl)cc(Cl)cc3Cl)nc3cnc(N[C@@H]4CCOC[C@H]4F)nc32)CC1 [Compound 1, cis-4-[2-{[(3S,4R)-3-fluorooxan-4-yl]amino}-8-(2,4,6-trichloroanilino)-9H-purin-9-yl]-1-methylcyclohexane-1-carboxamide] here?
**A.** induces apoptosis

**Q.** What about the “inhibition of colony formation vs trametinib and GDC0994” value [2] of the same molecule?
**A.** greater levels of inhibition than seen with treatment with MEK inhibitors or ERK inhibitors

**Q.** What about the pRSK1 inhibition ([3]; 2 h) of the same molecule?
**A.** potently inhibited pRSK1

**Q.** And the IC50 ([3]; Homo sapiens, 2 h treatment, n = 3)?
**A.** 38 nM

**Q.** What about the “proliferation and apoptosis in BRAF mutant and beta-catenin mutant or active cancer cell lines” value [4] of the same molecule?
**A.** potently inhibits proliferation and induces apoptosis

**Q.** And the “Apoptosis induction CalX2” value [4, 8]?
**A.** 0.004 ± 0.002 µM

**Q.** And the IC50 [4, 8]?
**A.** 28 nM

**Q.** What about the IC50 ([4]; Homo sapiens, Colo 205, CRC, BRAF (V600E)) of the same molecule?
**A.** 36 nM

**Q.** What about the IC50 ([4]; Homo sapiens, Hep3B, HCC, β-catenin active) of the same molecule?
**A.** 14 nM

**Q.** And the IC50 ([4]; Homo sapiens, LOX-IMVI, Melanoma, BRAF (V600E), β-catenin inactive)?
**A.** 25 nM

**Q.** What about the IC50 ([4]; Homo sapiens, SW48, CRC, CTNNB1 (S33Y), EGFR (G179S), β-catenin active) of the same molecule?
**A.** 9 nM

**Q.** And the “Axin2 RNA” value ([5]; Colo 205)?
**A.** increased Axin2 RNA

**Q.** What about the “expression of Hippo/YAP target genes (CTGF, AREG)” value ([5]; Colo 205, 2, 8 and 24 hr) of the same molecule?
**A.** significantly reduced

**Q.** And the SPRY2 transcription ([5]; Colo 205, 2, 8 or 24 h)?
**A.** reduction of SPRY2 transcription in a concentration-dependent manner

**Q.** And the “efficacy against cell lines with mutated β-catenin” value [6]?
**A.** showed efficacy

**Q.** What about the antitumor activity [7] of the same molecule?
**A.** Significant antitumor activity
